Read-outs that look alike come from different tables or passages of the source.
Assays:
LSD-1 = molecular target: T1, LSD-1 (Homo sapiens, UniProt O60341); assay: fluorometric LSD-1 enzymatic assay (Cayman kit); type: biochemical; conditions: for IC50: read-out: IC50 LSD-1 enzyme
T1 construct: purchased Cayman Chemical-USA 700120
Protocol: Briefly, the assay is based on a multistep enzymatic reaction in which LSD-1 first produces H2O2 during the demethylation of lysine 4 on a peptide corresponding to the first 21 amino acids of the N-terminal tail of histone H3. In the presence of horseradish peroxidase (HRP), H2O2 reacts with ADHP (10-acetyl-3,7-dihydroxyphenoxazine) to produce the highly fluorescent compound resorufin. Resorufin fluorescence was analysed with an excitation wavelength 530–540 nm and an emission wavelength of 585–595 nm. […] The procedure proceeds through the following steps: (i) prepare 100% initial activity wells by adding 120 μl of assay buffer, 20 μl of LSD1, 20 μl of HRP, 10 μl of ADHP, and 10 μl of DMSO to three wells. […] (iv) Initiate the reactions by adding 20 μl of substrate peptide to all the wells being used, except the background wells. (v) Cover the plate with the plate cover and incubate for 30 minutes at 37 °C. (vi) Remove the plate cover and read the plate using an excitation wavelength of 530–540 nm and an emission wavelength of 585–595 nm. (vii) Determine the average fluorescence of each sample. (viii) Subtract the fluorescence of the background wells from the fluorescence of the 100% initial activity and the inhibitor wells. (ix) Determine the percent inhibition for each sample. To do this, subtract each inhibitor sample value from the 100% initial activity sample value.

[1] = system: normal human dermal fibroblasts (HDF); assay: cytotoxicity against normal human dermal fibroblasts; type: cell-based; conditions: for SI: selectivity index in comparison with SH-SY5Y cells, HDF: HDF vs SH-SY5Y
From the text: However, testing against HDF is aimed at evaluating the selective cytotoxicities of hits.

[2] = system: glioblastoma U-87 MG cells; assay: MTT cytotoxicity against U-87 MG cells; type: cell-based
Protocol: (§1) The anticancer effects of captured hits were evaluated against SH-SY5Y (Neuroblastoma, CRL-2266), Panc-1 (pancreatic carcinoma, CRL-1469) and U-87 MG (glioblastoma, HTB-14) cells. Details about growth conditions, cell harvesting and counting are available in ESI Sections SM12–SM14. ^† The cancer killing profiles of tested compounds were evaluated colorimetrically using the Cell Titer Non-Radioactive Cell Proliferation Assay Kit® (Promega, USA) based on the reduction of a yellow tetrazole, 3-(4,5-Dimethylthiazol-2-yl)-2, 5-diphenyl tetrazolium bromide (MTT), to a purple formazan, a process that takes place in the mitochondria of viable cells (details are in ESI Sections SM12–SM14 ^†).[98,99]
(§2) Panc-1 and U-87 MG cells were used to probe LSD-1 inhibition by candidate inhibitors.[119,120] However, testing against HDF is aimed at evaluating the selective cytotoxicities of hits.

[3] = system: pancreatic carcinoma Panc-1 cells; assay: MTT cytotoxicity against Panc-1 cells; type: cell-based; conditions: for SI: selectivity index in comparison with SH-SY5Y cells, Panc-1: Panc-1 vs SH-SY5Y
Protocol: as §1, §2

[4] = system: neuroblastoma SH-SY5Y cells; assay: MTT cell viability assay on SH-SY5Y cells; type: cell-based; conditions: for IC50: read-out: In vitro IC50; for Experimental % inhibition Without verapamil At 50 μM: 72 h
Protocol: as §1
As SH-SY5Y cells highly express ATP binding cassette subfamily B member 1 (ABCB1, MDR1, normalized expression, NX: 36.8%),[100] cell resistance were reversed using verapamil (10 μM), which was added with each hit, and incubated with cells for 72 hours for subsequent MTT viability assay.[101,102] Finally, MTT cell proliferation assay results were analysed using GraphPad Prism 8.0 (GraphPad Software, Inc). […] Measurements were repeated in triplicates.
• MTT Cell Proliferation Assay
Inhibitory effect of the hits on SH-SY5Y cells were evaluated by a colorimetric method of CellTiter Non-Radioactive Cell Proliferation Assay Kit® (Promega, USA), based on the reduction of a yellow tetrazole, 3-(4,5-Dimethylthiazol-2-yl)-2, 5-diphenyl tetrazolium bromide (MTT), to a purple formazan, a process that take place in the mitochondria of viable cells.
Briefly, the cells were seeded onto 96-well plates (Greiner, Germany) at a concentration of 2×10^4 cells/well and incubated for 24 hours through which cells are attached to the walls of the wells.
Subsequently, hits under concern were screened on 50 µM and 10 µM concentrations (100 μL/ well). Each concentration was added in triplicates, and every plate contained a control of cells in plain medium. The cells were then incubated at 37 °C for 72 hours. After incubation, the media were aspirated from the wells and replaced by fresh media (100 μL/ well), and 15 µl MTT dye solution. The plates were incubated at 37 °C for four hours, and then 50 μL of solublization/stop solution was added to each well. Optical density (OD) at 560 nm wavelength was recorded one hour later using a 96-well plate reader (GloMax, Promega).
• Reversal of SH-SY5Y resistance by verapamil
As SH-SY5Y cells are highly expressing ATP binding cassette subfamily B member 1 (ABCB1, MDR1) (Normalized expression, NX: 36.8%) 100, cell resistance were reversed using 10 µM concentration of verapamil added with each hit and incubated with cells for 72 hours for subsequent MTT viability assay 101,102.

| Compound | % Inhibition at 10 μM LSD-1 enzyme (LSD-1) [%] | % Inhibition at 10 μM HDF [1] [%] | % Inhibition at 10 μM U-87 MG [2] [%] | % Inhibition at 10 μM Panc-1 [3] [%] | HS (hill Slope) LSD-1 enzyme (LSD-1) | IC50 (LSD-1) [nM] | IC50 [2] [nM] | IC50 [3] [nM] | further results |
| --- | --- | --- | --- | --- | --- | --- | --- | --- | --- |
| O=C(NCCCCCCCCCCNC(=O)Nc1cccc(C2=NCCN2)c1)Nc1cccc(C2=NCCN2)c1 [Cpd 285] | 18 | 31 | 0 | 3 |  |  |  |  |  |
| CCCCOCCCNCC(=O)Nc1ccc(S(=O)(=O)c2ccc(NC(=O)CNCCCOCCCC)cc2)cc1 [Cpd 287] | 96 | 7 | 15 | 39 |  |  |  |  |  |
| N=C(N)c1ccc(OCCCCCCOc2ccc(C(=N)N)cc2)cc1 [Cpd 288] | 18 | 35 | 47 | 41 |  |  |  |  |  |
| COc1cccc2c1C(=O)c1c(O)c3c(c(O)c1C2=O)CC(O)(C(C)=NNC(=O)CO)CC3OC1CC(N)C(O)C(C)O1 (centres unmarked) [Cpd 298] | 78 | 69 | 81 | 93 | 0.36 | 210 | 920 | 740 | IC50 [1]: 3060 nM; SI: selectivity index in comparison with SH-SY5Y cells, HDF [1]: 102; SI: selectivity index in comparison with SH-SY5Y cells, U-87 MG ([2]; U-87 MG vs SH-SY5Y): 30.6; SI: selectivity index in comparison with SH-SY5Y cells, Panc-1 [3]: 24.6 |
| N=C(N)c1ccc(OCCCCCCOc2ccc(C(=N)N)cc2I)cc1 [Cpd 304] | 88 | 68 | 64 | 73 | 0.70 | 610 | 7270 | 3850 | IC50 [1]: 5730 nM; SI: selectivity index in comparison with SH-SY5Y cells, HDF [1]: 15.48; SI: selectivity index in comparison with SH-SY5Y cells, Panc-1 [3]: 2.6 |
| COc1cccc2c1C(=O)c1c(O)c3c(c(O)c1C2=O)C[C@@](O)(C(=O)CO)C[C@@H]3O[C@H]1C[C@H](N)[C@H](O)[C@H](C)O1 [Doxorubicin, reference compound] |  |  |  |  |  |  |  |  | inhibition at 10 µM ([4]; Homo sapiens, read-out: Experimental % inhibition At 10 μM (column 6, head as shown: With verapamil), 72 h, 10 μM): 91%; IC50 ([4]; Homo sapiens, without verapamil): 600 nM; IC50 ([2]; Homo sapiens, U-87 MG): 1370 nM; inhibition at 10 µM ([2]; Homo sapiens, U-87 MG): 86%; IC50 ([3]; Homo sapiens, PANC-1): 1380 nM; inhibition at 10 µM ([3]; Homo sapiens, PANC-1): 76% |
| COc1cccc2c1C(=O)c1c(O)c3c(c(O)c1C2=O)CC(O)(C(C)=NNC(=O)CO)CC3OC1CC(N)C(O)C(C)O1 (centres unmarked) [Hit 298] |  |  |  |  | 0.36 | 210 ± 560 | 930 ± 120 | 740 ± 90 | Experimental % inhibition Without verapamil At 50 μM ([4]; without verapamil): 86.99%; IC50 ([4]; without verapamil): 30 nM |
| N=C(N)c1ccc(OCCCCCCOc2ccc(C(=N)N)cc2I)cc1 [Hit 304] |  |  |  |  | 0.68 | 610 ± 120 | 7270 ± 670 | 3850 ± 270 | Experimental % inhibition Without verapamil At 50 μM ([4]; without verapamil): 88.87%; IC50 ([4]; in presence of verapamil (10 μM)): 370 ± 20 nM |

From paper PMC9751883, “Discovery of new potent lysine specific histone demythelase-1 inhibitors (LSD-1) using structure based and ligand based molecular modelling and machine learning” (RSC Advances, 2022)
